Literature values as cited in US10052328B2, “Therapeutic composition to treat lesions caused by Herpes Simplex Virus” (G2L TOUCH, INC., priority 2009, dated 2018).

Tested on: cold sore (labial herpes simplex)
Conditions: commercial topical cream, versus untreated cold sores

SMILES: Nc1nc(=O)c2ncn(CCC(CO)CO)c2[nH]1 [PCV, 2-amino-9-[4-hydroxy-3-(hydroxymethyl)butyl]-6,9-dihydro-3H-purin-6-one]
- reduction of the duration of a cold sore / lesion, on average: 0.5 days
